Laboratory results reported in patent US20250145594A1, “MODULATORS OF THE INTEGRATED STRESS PATHWAY” (Calico Life Sciences LLC, priority 2020, published 2025).

Tested on: ATF4 luciferase reporter in HEK293T cells
Assay: ATF4-Luc assay (in vitro model of VWMD)
Type: cell-based, human
Details: Homo sapiens, HEK-293T, 7 h, HEK293T cells carrying the ATF4 luciferase reporter, 1 μg/mL tunicamycin, One Glo luminescence
Protocol: In order to test exemplary compounds of the invention in a cellular context, a stable VWMD cell line was first constructed. The ATF4 reporter was prepared by fusing the human full-length ATF4 5′-UTR (NCBI Accession No. BC022088.2) in front of the firefly luciferase (FLuc) coding sequence lacking the initiator methionine as described in Sidrauski et al (eLife 2013). The construct was used to produce recombinant retroviruses using standard methods and the resulting viral supernatant was used to transduce HEK293T cells, which were then subsequently selected with puromycin to generate a stable cell line.
HEK293T cells carrying the ATF4 luciferase reporter were plated on polylysine coated 384-well plates (Greiner Bio-one) at 30,000 cells per well. Cells were treated the next day with 1 μg/mL tunicamycin and 200 nM of a compound of Formula (I) for 7 hours. Luminescence was measured using One Glo (Promega) as specified by the manufacturer. Cells were maintained in DMEM with L-glutamine supplemented with 10% heat-inactivated FBS (Gibco) and Antibiotic-Antimycotic solution (Gibco).
Table 4 below summarizes the EC50 data obtained using the ATF4-Luc assay for exemplary compounds of the invention.

Question: For `O=C(NC12CC(n3cc(-c4ccc(C(F)(F)F)cn4)cn3)(C1)C2)[C@H]1C[C@H](O)c2cc(Cl)c(F)cc2O1` [Compound 478, (2R,4S)-6-chloro-7-fluoro-4-hydroxy-N-(3-{4-[5-(trifluoromethyl)pyridin-2-yl]-1H-pyrazol-1-yl}bicyclo[1.1.1]pentan-1-yl)-3,4-dihydro-2H-1-benzopyran-2-carboxamide], which EC50 is on record?
Answer: < 0.01 µM

Question: For `O=C(N[C@H]1CC[C@H](n2cc(OCCOC(F)(F)F)cn2)CC1)[C@H]1C[C@@H](O)c2cc(Cl)c(Cl)cc2O1` [Compound 459, (2R,4R)-6,7-dichloro-4-hydroxy-N-[(1r,4R)-4-{4-[2-(trifluoromethoxy)ethoxy]-1H-pyrazol-1-yl}cyclohexyl]-3,4-dihydro-2H-1-benzopyran-2-carboxamide], which EC50 is on record?
Answer: < 0.01 µM

Question: `O=C(NC12CCC(n3cc(OCCCOC(F)(F)F)cn3)(C1)C2)[C@H]1C[C@@H](O)c2cc(Cl)ccc2O1` [Compound 628, (2R,4R)-6-chloro-4-hydroxy-N-(4-{4-[3-(trifluoromethoxy)propoxy]-1H-pyrazol-1-yl}bicyclo[2.1.1]hexan-1-yl)-3,4-dihydro-2H-1-benzopyran-2-carboxamide] was tested. Which EC50 did it give?
Answer: 0.05 to 0.25 µM

Question: `O=C(COc1ccc(Cl)c(F)c1)N[C@H]1CC[C@H](n2cc(C(=O)N3CC[C@H](OC(F)(F)F)C3)cn2)CC1` [Compound 609, 2-(4-chloro-3-fluorophenoxy)-N-[(1S,4r)-4-{4-[(3S)-3-(trifluoromethoxy)pyrrolidine-1-carbonyl]-1H-pyrazol-1-yl}cyclohexyl]acetamide] was tested. Which EC50 did it give?
Answer: < 0.01 µM

Question: How did the EC50 turn out when `COc1ccc2nn(C34CCC(NC(=O)COc5ccc(Cl)c(F)c5)(CC3)[C@@H](O)C4)cc2c1` [Compound 597, 2-(4-chloro-3-fluorophenoxy)-N-[(2S)-2-hydroxy-4-(5-methoxy-2H-indazol-2-yl)bicyclo[2.2.2]octan-1-yl]acetamide] was run?
Answer: 0.01 to 0.05 µM

Question: With `O=C(NC12CC(n3cc(C4CC(COC(F)(F)F)C4)nn3)(C1)C2)[C@H]1C[C@@H](O)c2cc(Cl)ccc2O1` (stereo partly drawn) [Compound 541, (2R,4R)-6-chloro-4-hydroxy-N-[3-(4-{3-[(trifluoromethoxy)methyl]cyclobutyl}-1H-1,2,3-triazol-1-yl)bicyclo[1.1.1]pentan-1-yl]-3,4-dihydro-2H-1-benzopyran-2-carboxamide] as the molecule, how does the EC50 read?
Answer: < 0.01 µM

Question: `O=C(NC12CC(c3ccc(C(=O)N4CC(OCC(F)(F)F)C4)nc3)(C1)C2)[C@H]1C[C@@H](O)c2cc(Cl)ccc2O1` [Compound 533, (2R,4R)-6-chloro-4-hydroxy-N-(3-{6-[3-(2,2,2-trifluoroethoxy)azetidine-1-carbonyl]pyridin-3-yl}bicyclo[1.1.1]pentan-1-yl)-3,4-dihydro-2H-1-benzopyran-2-carboxamide] was tested. Which EC50 did it give?
Answer: < 0.01 µM

Question: For `O=C(NC12CC(n3cc(OCCOC(F)(F)F)cn3)(C1)C2)[C@@H]1C[C@@H](O)c2cc(Cl)c(Cl)cc2O1` [Compound 434, (2S,4R)-6,7-dichloro-4-hydroxy-N-(3-{4-[2-(trifluoromethoxy)ethoxy]-1H-pyrazol-1-yl}bicyclo[1.1.1]pentan-1-yl)-3,4-dihydro-2H-1-benzopyran-2-carboxamide], which EC50 is on record?
Answer: < 0.01 µM

Question: Which EC50 does the source give for `CC1(C(F)(F)F)CCCN1C(=O)c1cnn(C23CC(NC(=O)[C@H]4C[C@@H](O)c5cc(Cl)ccc5O4)(C2)C3)c1` (stereo partly drawn) [Compound 328, (2R,4R)-6-chloro-4-hydroxy-N-(3-{4-[2-methyl-2-(trifluoromethyl)pyrrolidine-1-carbonyl]-1H-pyrazol-1-yl}bicyclo[1.1.1]pentan-1-yl)-3,4-dihydro-2H-1-benzopyran-2-carboxamide] here?
Answer: 0.05 to 0.25 µM

Question: How did the EC50 turn out when `O=C(NC12CC(n3cc(COCCOC(F)(F)F)nn3)(C1)C2)[C@H]1C[C@@H](O)c2cc(Cl)c(F)cc2O1` [Compound 467, (2R,4R)-6-chloro-7-fluoro-4-hydroxy-N-[3-(4-{[2-(trifluoromethoxy)ethoxy]methyl}-1H-1,2,3-triazol-1-yl)bicyclo[1.1.1]pentan-1-yl]-3,4-dihydro-2H-1-benzopyran-2-carboxamide] was run?
Answer: < 0.01 µM

Question: With `O=C(N[C@H]1CC[C@H](n2cc(-c3ccc(C(F)(F)F)cn3)cn2)CC1)[C@H]1C[C@@H](O)c2cc(Cl)ccc2O1` [Compound 577, (2R,4R)-6-chloro-4-hydroxy-N-[(1r,4R)-4-{4-[5-(trifluoromethyl)pyridin-2-yl]-1H-pyrazol-1-yl}cyclohexyl]-3,4-dihydro-2H-1-benzopyran-2-carboxamide] as the molecule, how does the EC50 read?
Answer: < 0.01 µM

Question: `O=C(COc1ccc(Cl)c(F)c1)NC12CC(n3cc(CCCOC(F)(F)F)cn3)(C1)C2` [Compound 613, 2-(4-chloro-3-fluorophenoxy)-N-(3-{4-[3-(trifluoromethoxy)propyl]-1H-pyrazol-1-yl}bicyclo[1.1.1]pentan-1-yl)acetamide] was tested. Which EC50 did it give?
Answer: 0.01 to 0.05 µM

Question: For `Cc1cc(C)cc(OCC2CN(C34CC(NC(=O)[C@H]5CC(=O)c6cc(Cl)ccc6O5)(C3)C4)C(=O)O2)c1` (stereo partly drawn) [Compound 100, (2R)-6-chloro-N-(3-{5-[(3,5-dimethylphenoxy)methyl]-2-oxo-1,3-oxazolidin-3-yl}bicyclo[1.1.1]pentan-1-yl)-4-oxo-3,4-dihydro-2H-1-benzopyran-2-carboxamide], which EC50 is on record?
Answer: > 2 µM

Question: `O=C(NC12CC(n3cc(C(=O)N4CC[C@H](OC(F)(F)F)C4)cn3)(C1)C2)[C@H]1C[C@@H](O)c2cc(Cl)ccc2O1` [Compound 371, (2R,4R)-6-chloro-4-hydroxy-N-(3-{4-[(3S)-3-(trifluoromethoxy)pyrrolidine-1-carbonyl]-1H-pyrazol-1-yl}bicyclo[1.1.1]pentan-1-yl)-3,4-dihydro-2H-1-benzopyran-2-carboxamide] was tested. Which EC50 did it give?
Answer: < 0.01 µM

Question: How did the EC50 turn out when `O=C(NC12CCC(n3cc(OCCOC(F)(F)F)cn3)(C1)C2)[C@H]1C[C@@H](O)c2cc(Cl)ccc2O1` [Compound 594, (2R,4R)-6-chloro-4-hydroxy-N-(4-{4-[2-(trifluoromethoxy)ethoxy]-1H-pyrazol-1-yl}bicyclo[2.1.1]hexan-1-yl)-3,4-dihydro-2H-1-benzopyran-2-carboxamide] was run?
Answer: 0.05 to 0.25 µM

Question: How did the EC50 turn out when `O=C(NC12CC(OCC(=O)N3CCC(OC(F)(F)F)C3)(C1)C2)[C@H]1C[C@@H](O)c2cc(Cl)ccc2O1` (stereo partly drawn) [Compound 334, (2R,4R)-6-chloro-4-hydroxy-N-(3-{2-oxo-2-[3-(trifluoromethoxy)pyrrolidin-1-yl]ethoxy}bicyclo[1.1.1]pentan-1-yl)-3,4-dihydro-2H-1-benzopyran-2-carboxamide] was run?
Answer: 0.05 to 0.25 µM

Question: For `O=C(COc1ccc(Cl)c(F)c1)NC12CC(c3ccc(C(=O)N4CC(OC(F)(F)F)C4)nc3)(C1)C2` [Compound 605, 2-(4-chloro-3-fluorophenoxy)-N-(3-{6-[3-(trifluoromethoxy)azetidine-1-carbonyl]pyridin-3-yl}bicyclo[1.1.1]pentan-1-yl)acetamide], which EC50 is on record?
Answer: < 0.01 µM

Question: How did the EC50 turn out when `O=C(COc1ccc(Cl)c(F)c1)NC12CC(n3cc(OC[C@H]4C[C@@H](OC(F)(F)F)C4)cn3)(C1)C2` [Compound 612, 2-(4-chloro-3-fluorophenoxy)-N-[3-(4-{[(1s,3s)-3-(trifluoromethoxy)cyclobutyl]methoxy}-1H-pyrazol-1-yl)bicyclo[1.1.1]pentan-1-yl]acetamide] was run?
Answer: < 0.01 µM

Question: For `O=C(NC12CC(n3cc(-c4ccc(C(F)(F)F)cn4)cn3)(C1)C2)[C@H]1C[C@H](O)c2cc(C(F)(F)F)ccc2O1` [Compound 549, (2R,4S)-4-hydroxy-6-(trifluoromethyl)-N-(3-{4-[5-(trifluoromethyl)pyridin-2-yl]-1H-pyrazol-1-yl}bicyclo[1.1.1]pentan-1-yl)-3,4-dihydro-2H-1-benzopyran-2-carboxamide], which EC50 is on record?
Answer: < 0.01 µM

Question: With `O=C(NC12CC(n3cc4cc(COCC(F)(F)F)ccc4n3)(C1)C2)[C@H]1C[C@@H](O)c2cc(Cl)c(F)cc2O1` [Compound 651, (2R,4R)-6-chloro-7-fluoro-4-hydroxy-N-(3-{5-[(2,2,2-trifluoroethoxy)methyl]-2H-indazol-2-yl}bicyclo[1.1.1]pentan-1-yl)-3,4-dihydro-2H-1-benzopyran-2-carboxamide] as the molecule, how does the EC50 read?
Answer: < 0.01 µM

Question: For `O=C(NC12CC(n3cc4cc(COCC(F)(F)F)ccc4n3)(C1)C2)[C@H]1C[C@@H](O)c2cc(Cl)ccc2O1` [Compound 650, (2R,4R)-6-chloro-4-hydroxy-N-(3-{5-[(2,2,2-trifluoroethoxy)methyl]-2H-indazol-2-yl}bicyclo[1.1.1]pentan-1-yl)-3,4-dihydro-2H-1-benzopyran-2-carboxamide], which EC50 is on record?
Answer: < 0.01 µM

Question: For `O=C(NC12CC(n3cc(C[C@H]4C[C@H](OC(F)(F)F)C4)cn3)(C1)C2)[C@H]1C[C@@H](O)c2cc(Cl)c(F)cc2O1` [Compound 530, (2R,4R)-6-chloro-7-fluoro-4-hydroxy-N-[3-(4-{[(1r,3S)-3-(trifluoromethoxy)cyclobutyl]methyl}-1H-pyrazol-1-yl)bicyclo[1.1.1]pentan-1-yl]-3,4-dihydro-2H-1-benzopyran-2-carboxamide], which EC50 is on record?
Answer: 0.01 to 0.05 µM

Question: `O=C(COc1ccc(Cl)c(F)c1)NC12CC(c3ccc(OCCOC(F)(F)F)nc3)(C1)C2` [Compound 456, 2-(4-chloro-3-fluorophenoxy)-N-(3-{6-[2-(trifluoromethoxy)ethoxy]pyridin-3-yl}bicyclo[1.1.1]pentan-1-yl)acetamide] was tested. Which EC50 did it give?
Answer: 0.05 to 0.25 µM

Question: For `O=C(NC12CC(n3cc(-c4ccc(OC(F)(F)F)cn4)cn3)(C1)C2)[C@H]1C[C@@H](O)c2cc(Cl)c(F)cc2O1` [Compound 361, (2R,4R)-6-chloro-7-fluoro-4-hydroxy-N-(3-{4-[5-(trifluoromethoxy)pyridin-2-yl]-1H-pyrazol-1-yl}bicyclo[1.1.1]pentan-1-yl)-3,4-dihydro-2H-1-benzopyran-2-carboxamide], which EC50 is on record?
Answer: < 0.01 µM
